Data as given in patent US20080305958A1, “Process for Liquid or gas Chromatography/Mass Spectrometry Based Biomolecular Screening for Drug Discovery” (priority 2004, published 2008).

Target: T1, M CPT-I (Homo sapiens, UniProt Q92523)
T1 sequence (Q92523 1-772): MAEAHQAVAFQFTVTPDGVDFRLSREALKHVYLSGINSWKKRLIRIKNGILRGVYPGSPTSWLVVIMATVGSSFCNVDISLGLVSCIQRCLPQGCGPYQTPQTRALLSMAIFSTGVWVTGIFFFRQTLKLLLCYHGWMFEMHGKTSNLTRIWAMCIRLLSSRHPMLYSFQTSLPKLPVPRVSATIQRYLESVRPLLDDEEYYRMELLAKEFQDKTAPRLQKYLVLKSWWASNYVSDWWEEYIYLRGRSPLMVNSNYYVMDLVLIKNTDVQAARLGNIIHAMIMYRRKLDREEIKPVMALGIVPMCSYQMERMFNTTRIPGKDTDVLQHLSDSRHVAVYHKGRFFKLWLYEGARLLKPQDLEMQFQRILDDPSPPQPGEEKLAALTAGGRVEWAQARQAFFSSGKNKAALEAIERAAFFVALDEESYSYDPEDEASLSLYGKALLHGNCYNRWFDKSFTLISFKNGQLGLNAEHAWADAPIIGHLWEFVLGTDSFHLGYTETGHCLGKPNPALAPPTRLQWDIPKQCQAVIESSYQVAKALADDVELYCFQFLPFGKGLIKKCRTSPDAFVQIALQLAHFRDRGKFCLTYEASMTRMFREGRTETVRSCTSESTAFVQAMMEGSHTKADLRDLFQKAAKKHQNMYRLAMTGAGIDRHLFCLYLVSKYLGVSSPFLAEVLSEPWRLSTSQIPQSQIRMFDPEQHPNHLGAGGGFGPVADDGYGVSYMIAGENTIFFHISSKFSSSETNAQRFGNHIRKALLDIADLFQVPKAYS
Assay: LC/MS HTS assay, malonyl-CoA inhibition of human MCPT-I (palmitoyl-CoA and carnitine converted to palmitoyl carnitine)
Type: biochemical
Conditions: FIG. 9B
Description: The biological activity used for the assay is the conversion by CPT-1 of palmitoyl-CoA (fatty acid-CoA) and carnitine to palmitoyl carnitine complex and free CoA.
The biological activity used for the assay is the conversion by CPT-1 of palmitoyl-CoA and carnitine to palmitoyl carnitine complex and free CoA.

Compound: CC(C)(COP(=O)(O)OP(=O)(O)OC[C@H]1O[C@@H](n2cnc3c(N)ncnc32)[C@H](O)[C@@H]1OP(=O)(O)O)[C@@H](O)C(=O)NCCC(=O)NCCSC(=O)CC(=O)O [Malonyl-CoA]
- IC50: 41 nM
